The test system of this assay is 519858-162-T-J1-PDC complex spheroid growth, % test/control. The assay can be described thus: Anticancer human tumor 519858-162-T-J1-PDC patient-derived colon adenocarcinoma cell line growth inhibition [Asc]. Particulars: for viability, T/C: stronger effect = lower value. The procedure, abridged:
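Complex solid-tumor spheroids incorporating human endothelial and mesenchymal stem cells received single agents or combinations over half-log dilution ranges anchored to clinical Cmax.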

Setting [1] is: curve of first compound, second compound 0.00316 µM.
[2] abbreviates: curve of first compound, second compound 0.01 µM.
Where [3] appears, read: curve of first compound, second compound 0.0316 µM.
[4] abbreviates: curve of first compound, second compound 0.1 µM.
Where [5] appears, read: curve of first compound, second compound 0.316 µM.
Where [6] appears, read: curve of first compound, second compound 1 µM.
Where [7] appears, read: second compound 0.00316 µM, first compound 0.0316 µM.
Setting [8] is: second compound 0.00316 µM, first compound 0.1 µM.
Where [9] appears, read: second compound 0.00316 µM, first compound 0.316 µM.
Setting [10] is: second compound 0.00316 µM, first compound 1 µM.
Setting [11] is: second compound 0.00316 µM, first compound 3.16 µM.
The mark [12] stands for this setting: second compound 0.00316 µM, first compound 10 µM.
Where [13] appears, read: second compound 0.01 µM, first compound 0.0316 µM.
Where [14] appears, read: second compound 0.01 µM, first compound 0.1 µM.
Setting [15] is: second compound 0.01 µM, first compound 0.316 µM.
Where [16] appears, read: second compound 0.01 µM, first compound 1 µM.
The mark [17] stands for this setting: second compound 0.01 µM, first compound 3.16 µM.
The mark [18] stands for this setting: second compound 0.01 µM, first compound 10 µM.
The mark [19] stands for this setting: second compound 0.0316 µM, first compound 0.0316 µM.
[20] abbreviates: second compound 0.0316 µM, first compound 0.1 µM.
Where [21] appears, read: second compound 0.0316 µM, first compound 0.316 µM.
The mark [22] stands for this setting: second compound 0.0316 µM, first compound 1 µM.
[23] abbreviates: second compound 0.0316 µM, first compound 3.16 µM.
[24] abbreviates: second compound 0.0316 µM, first compound 10 µM.
The mark [25] stands for this setting: second compound 0.1 µM, first compound 0.0316 µM.
Where [26] appears, read: second compound 0.1 µM, first compound 0.1 µM.
The mark [27] stands for this setting: second compound 0.1 µM, first compound 0.316 µM.
[28] abbreviates: second compound 0.1 µM, first compound 1 µM.
Setting [29] is: second compound 0.1 µM, first compound 3.16 µM.
Setting [30] is: second compound 0.1 µM, first compound 10 µM.
The mark [31] stands for this setting: second compound 0.316 µM, first compound 0.0316 µM.
[32] abbreviates: second compound 0.316 µM, first compound 0.1 µM.
[33] abbreviates: second compound 0.316 µM, first compound 0.316 µM.
[34] abbreviates: second compound 0.316 µM, first compound 1 µM.
Where [35] appears, read: second compound 0.316 µM, first compound 3.16 µM.
The mark [36] stands for this setting: second compound 0.316 µM, first compound 10 µM.
[37] abbreviates: second compound 1 µM, first compound 0.0316 µM.
Where [38] appears, read: second compound 1 µM, first compound 0.1 µM.
Setting [39] is: second compound 1 µM, first compound 0.316 µM.
Setting [40] is: second compound 1 µM, first compound 1 µM.
Setting [41] is: second compound 1 µM, first compound 3.16 µM.
Where [42] appears, read: second compound 1 µM, first compound 10 µM.

Several values for one entry are separate records, joined by “and”; a condition that tells them apart may be missing. Equal values may be shown once.
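Also: seven day drug exposure begun three days after spheroid seeding.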
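For viability, T/C in this document: 100% = DMSO vehicle wells and lower values mean less viable spheroid.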

With `C=CC(=O)N1CCN(c2nc(=O)n(-c3c(C)ccnc3C(C)C)c3nc(-c4c(O)cccc4F)c(F)cc23)C(C)C1` (stereo not drawn) + CNC(C)C(=O)NC1CN(S(=O)(=O)c2cccc(S(=O)(=O)N3CCC4CCC(C(=O)NC(c5ccccc5)c5ccccc5)N4C(=O)C(NC(=O)C(C)NC)C3)c2)CCC2CCC(C(=O)NC(c3ccccc3)c3ccccc3)N2C1=O, the concentration for half-maximal inhibition (IC50) runs as follows: under setting [1], greater than 10 µM; under setting [2], greater than 10 µM; under setting [3], greater than 10 µM; under setting [4], greater than 10 µM; under setting [5], greater than 10 µM; under setting [6], greater than 10 µM. The viability, T/C by setting is: under setting [7], 125%; under setting [8], 106%; under setting [9], 98.9%; under setting [10], 75.7%; under setting [11], 88.3%; under setting [12], 89.6%. Moreover, the viability, T/C under setting [13] is 113%; the viability, T/C under setting [14] is 84%; the viability, T/C under setting [15] was 101%; the viability, T/C under setting [16] is 76.1%; the viability, T/C under setting [17] was 85.8%; the viability, T/C under setting [18] was 92.4%. Also, the viability, T/C was 104% under setting [19]; 95.4% under setting [20]; 109% under setting [21]; 79.1% under setting [22]; 101% under setting [23]; 90.8% under setting [24]. Further, the viability, T/C under setting [25] is 77.9%; the viability, T/C under setting [26] was 80%; the viability, T/C under setting [27] was 103%; the viability, T/C under setting [28] is 90.4%; the viability, T/C under setting [29] was 77.9%; the viability, T/C under setting [30] is 80.4%. In addition, the viability, T/C by setting is: under setting [31], 85.2%; under setting [32], 94.9%; under setting [33], 95.4%; under setting [34], 89.2%; under setting [35], 90.5%; under setting [36], 98.4%. The viability, T/C under setting [37] is 89.7%; the viability, T/C under setting [38] is 90.3%; the viability, T/C under setting [39] is 80.3%; the viability, T/C under setting [40] was 82%; the viability, T/C under setting [41] is 91.1%; the viability, T/C under setting [42] is 88%.

As to `CCN1C(C(=O)NC23CCC(C(=O)O)(CC2)CC3)C(c2cccc(Cl)c2F)C2(C(=O)Nc3cc(Cl)ccc32)C12CCCCC2` (stereo not drawn), the IC50 by setting is: (compound alone, run of 11/07/2022) greater than 3 µM; (curve of compound) greater than 3 µM.

On to `C#Cc1c(F)ccc2cc(O)cc(-c3ncc4c(N5CC6CCC(C5)N6)nc(OCC56CCCN5CC(F)C6)nc4c3F)c12` (stereo not drawn) + CNC(C)C(=O)NC1CN(S(=O)(=O)c2cccc(S(=O)(=O)N3CCC4CCC(C(=O)NC(c5ccccc5)c5ccccc5)N4C(=O)C(NC(=O)C(C)NC)C3)c2)CCC2CCC(C(=O)NC(c3ccccc3)c3ccccc3)N2C1=O, for which the 50% inhibitory concentration (IC50) under setting [1] was greater than 10 µM; the IC50 under setting [2] is greater than 10 µM; the IC50 under setting [3] is greater than 10 µM; the IC50 under setting [4] was greater than 10 µM; the half-inhibitory concentration (IC50) under setting [5] is greater than 10 µM; the IC50 under setting [6] was greater than 10 µM. The viability, T/C by setting is: under setting [7], 138%; under setting [8], 111%; under setting [9], 99.4%; under setting [10], 100%; under setting [11], 82.1%; under setting [12], 72.1%. Further, the viability, T/C under setting [13] was 97.8%; the viability, T/C under setting [14] was 91.2%; the viability, T/C under setting [15] is 93.6%; the viability, T/C under setting [16] was 86.1%; the viability, T/C under setting [17] is 81.2%; the viability, T/C under setting [18] is 77.3%. Moreover, the viability, T/C under setting [19] is 96.5%; the viability, T/C under setting [20] is 82.4%; the viability, T/C under setting [21] was 86.3%; the viability, T/C under setting [22] was 102%; the viability, T/C under setting [23] was 75.2%; the viability, T/C under setting [24] is 105%. Besides, the viability, T/C by setting is: under setting [25], 123%; under setting [26], 123%; under setting [27], 117%; under setting [28], 97.6%; under setting [29], 88.1%; under setting [30], 94.9%. Moreover, the viability, T/C under setting [31] was 78.8%; the viability, T/C under setting [32] is 97.6%; the viability, T/C under setting [33] was 111%; the viability, T/C under setting [34] was 115%; the viability, T/C under setting [35] is 87.8%; the viability, T/C under setting [36] was 92.2%. In addition, the viability, T/C reads like this: under setting [37], 86.5%; under setting [38], 93.2%; under setting [39], 92.2%; under setting [40], 77.9%; under setting [41], 112%; under setting [42], 106%.

Turning to `NC1CCC(NC2CC2c2ccccc2)CC1` (stereo not drawn), the viability, T/C (compound 0.000316 µM) is 104% and 97.4% and 118%; the viability, T/C (compound 0.001 µM) is 95.6% and 118% and 95.5%; the viability, T/C (compound 0.00316 µM) was 86.1% and 99% and 95.9%; the viability, T/C (compound 0.01 µM) was 99.9% and 127% and 86.2%; the viability, T/C (compound 0.0316 µM) was 129% and 85.6% and 94.6%; the viability, T/C (compound 0.1 µM) was 113% and 111% and 102%. In addition, the half-inhibitory concentration (IC50) (curve of compound) was greater than 0.1 µM.

Broadly, the IC50 is the concentration needed to halve the response being measured. In general, viability, T/C refers to the result in the treated group divided by that in the control group, in per cent.

(Values after PubChem BioAssay AID1963421 (Molecular Pharmacology Branch, DTP, NCI, 2024).)
